Assay results from ChEMBL document CHEMBL4715815, “Design, synthesis and biological evaluation of 7H-pyrrolo[2,3-d]pyrimidin-4-amine derivatives as selective Btk inhibitors with improved pharmacokinetic properties for the treatment of rheumatoid arthritis” (Eur J Med Chem, 2018).
Activity calls are given as the source filed them. The calls are words filed in the database; no cut-off is given here.

Legend:
[1] = target: Tyrosine-protein kinase ITK/TSK (Homo sapiens, UniProt Q08881); experiment: Inhibition of ITK (unknown origin)
[2] = target: T1, Tyrosine-protein kinase BTK (Homo sapiens, UniProt Q06187); experiment: Inhibition of BTK in human Daudi cells assessed as reduction in BTK Y551 phosphorylation at 0.03 to 10 uM incubated for 1 hr by Western blot analysis; format: cell-based; conditions: dose 0.03-10 µM
[3] = target: Dual specificity mitogen-activated protein kinase kinase 7 (Homo sapiens, UniProt O14733); experiment: Inhibition of MKK7beta (unknown origin)
[4] = target: Dual specificity mitogen-activated protein kinase kinase 1 (Homo sapiens, UniProt Q02750); experiment: Inhibition of recombinant human MEK1 using inactivated ERK2 as substrate incubate for 60 mins by LANCE assay
[5] = Clearance in Sprague-Dawley rat at 3 mg/kg, po measured up to 24 hrs by LC-MS/MS analysis; format: ADME, organism-based; conditions: in vivo
[6] = Toxicity in BALB/c mouse assessed as effect on sensitive to light at 2 g/kg, po measured after 7 days of administration; conditions: in vivo, 168 h
[7] = target: Epidermal growth factor receptor (Homo sapiens, UniProt P00533)
[8] = target: T1, Tyrosine-protein kinase BTK; experiment: Inhibition of BTK in human U2932 cells assessed as reduction in BTK Y223 phosphorylation incubated for 1 hr by Western blot analysis; format: cell-based; conditions: dose 0.03-10 µM
[9] = target: Calcium/calmodulin-dependent protein kinase type II subunit beta (Homo sapiens, UniProt Q13554); experiment: Inhibition of CAMK2 (unknown origin)
[10] = target: Calcium/calmodulin-dependent protein kinase type IV (Homo sapiens, UniProt Q16566); experiment: Inhibition of CAMK4 (unknown origin)
[11] = target: BDNF/NT-3 growth factors receptor (Homo sapiens, UniProt Q16620); experiment: Inhibition of recombinant human TRKb using Ulight-Poly GAT[EAY(1:1:1)]n as substrate incubate for 10 mins by LANCE assay
[12] = target: T1, Tyrosine-protein kinase BTK
Description: Reversible inhibition of BTK (unknown origin) assessed as association rate constant by caliper mobility shift assay

[13] = Cmax in Sprague-Dawley rat at 3 mg/kg, po measured up to 24 hrs by LC-MS/MS analysis; format: ADME, organism-based; set-up: route oral, dose 3 mg/kg, time <=24; conditions: in vivo
[14] = Toxicity in BALB/c mouse assessed as normal behavior at 2 g/kg, po measured after 7 days of administration; conditions: in vivo, 168 h
[15] = Metabolic stability in monkey liver microsomes assessed as intrinsic clearance at 100 uM/L measured upto 90 mins by LC-MS/MS analysis; format: ADME, Macaca mulatta, Microsome; conditions: rhesus monkey, 1.5 h
[16] = Volume of distribution in Sprague-Dawley rat at 3 mg/kg, po measured up to 24 hrs by LC-MS/MS analysis; format: ADME, organism-based; conditions: in vivo
[17] = target: T1, Tyrosine-protein kinase BTK; experiment: Inhibition of BTK in human Raji cells assessed as reduction in PLCgamma2 Y1217 phosphorylation at 0.03 to 10 uM incubated for 1 hr by Western blot analysis; format: cell-based; conditions: dose 0.03-10 µM
[18] = target: T1, Tyrosine-protein kinase BTK; experiment: Inhibition of BTK in human U2932 cells assessed as reduction in BTK Y551 phosphorylation at 0.03 to 10 uM incubated for 1 hr by Western blot analysis; format: cell-based; conditions: dose 0.03-10 µM
[19] = Metabolic stability in mouse liver microsomes assessed as intrinsic clearance at 100 uM/L measured upto 90 mins by LC-MS/MS analysis; format: ADME, Microsome; conditions: 1.5 h
[20] = target: Dual specificity mitogen-activated protein kinase kinase 4 (Homo sapiens, UniProt P45985); experiment: Inhibition of MKK4 (unknown origin)
Mus musculus = experiment: Antiarthritic activity in DBA/1J mouse model of collagen-induced arthritis assessed as reduction in edema formation at 20 mg/kg, po administered for 30 days and measured on day 30; format: functional, organism-based; conditions: time 30.0 day
[21] = AUC (0 to t) in Sprague-Dawley rat at 3 mg/kg, iv measured up to 24 hrs by LC-MS/MS analysis; format: ADME, organism-based; set-up: route intravenous, dose 3 mg/kg, time <=24; conditions: in vivo
[22] = target: High affinity nerve growth factor receptor (Homo sapiens, UniProt P04629); experiment: Inhibition of recombinant human TRKa using Ulight-Poly GAT[EAY(1:1:1)]n as substrate incubate for 10 mins by LANCE assay
L02 = experiment: Cytotoxicity against human L02 cells assessed as reduction in cell viability incubated for 72 hrs by MTT assay; format: ADME, cell-based; conditions: L02, 72 h
[23] = target: Calcium/calmodulin-dependent protein kinase kinase 1 (Homo sapiens, UniProt Q8N5S9); experiment: Inhibition of CAMKK1 (unknown origin)
[24] = Metabolic stability in mouse liver microsomes assessed as half life at 100 uM/L measured upto 90 mins by LC-MS/MS analysis; format: ADME, Microsome
[25] = target: Tyrosine-protein kinase JAK2 (Homo sapiens, UniProt O60674); experiment: Inhibition of recombinant human JAK2 using Ulight-CAGAGAIETDKEYYTVKD as substrate incubate for 60 mins by LANCE assay
[26] = target: Receptor tyrosine-protein kinase erbB-4 (Homo sapiens, UniProt Q15303); experiment: Inhibition of ErBB4 (unknown origin)
[27] = Inhibition of GSK3alpha/GSK3beta (unknown origin); set-up: species or system Homo sapiens
[28] = Inhibition of PKC (unknown origin); set-up: species or system Homo sapiens
[29] = Toxicity in BALB/c mouse assessed as free movement at 2 g/kg, po measured after 7 days of administration; conditions: in vivo, 168 h
[30] = target: Ribosomal protein S6 kinase beta-1 (Homo sapiens, UniProt P23443); experiment: Inhibition of recombinant human p70S6K using CREBtide as substrate incubate for 15 mins by LANCE assay
[31] = target: NT-3 growth factor receptor (Homo sapiens, UniProt Q16288); experiment: Inhibition of TRKc (unknown origin)
[32] = target: Mitogen-activated protein kinase kinase kinase 2 (Homo sapiens, UniProt Q9Y2U5); experiment: Inhibition of MEKK2 (unknown origin)
[33] = target: Mitogen-activated protein kinase kinase kinase 3 (Homo sapiens, UniProt Q99759); experiment: Inhibition of MEKK3 (unknown origin)
[34] = Cmax in Sprague-Dawley rat at 3 mg/kg, iv measured up to 24 hrs by LC-MS/MS analysis; format: ADME, organism-based; set-up: route intravenous, dose 3 mg/kg, time <=24; conditions: in vivo
HEK293 = experiment: Cytotoxicity against human HEK293 cells assessed as reduction in cell viability incubated for 72 hrs by MTT assay; format: ADME, cell-based; conditions: HEK293, 72 h
[35] = Volume of distribution in Sprague-Dawley rat at 3 mg/kg, iv measured up to 24 hrs by LC-MS/MS analysis; format: ADME, organism-based; conditions: in vivo
[36] = Half life in Sprague-Dawley rat at 3 mg/kg, iv measured up to 24 hrs by LC-MS/MS analysis; format: ADME, organism-based; conditions: in vivo
[37] = target: Proto-oncogene tyrosine-protein kinase receptor Ret (Homo sapiens, UniProt P07949); experiment: Inhibition of RET (unknown origin)
[38] = target: Dual specificity mitogen-activated protein kinase kinase 6 (Homo sapiens, UniProt P52564); experiment: Inhibition of MKK6 (unknown origin)
[39] = target: Tyrosine-protein kinase SYK (Homo sapiens, UniProt P43405); experiment: Inhibition of SYK (unknown origin)

T1 sequence (Q06187 whole entry): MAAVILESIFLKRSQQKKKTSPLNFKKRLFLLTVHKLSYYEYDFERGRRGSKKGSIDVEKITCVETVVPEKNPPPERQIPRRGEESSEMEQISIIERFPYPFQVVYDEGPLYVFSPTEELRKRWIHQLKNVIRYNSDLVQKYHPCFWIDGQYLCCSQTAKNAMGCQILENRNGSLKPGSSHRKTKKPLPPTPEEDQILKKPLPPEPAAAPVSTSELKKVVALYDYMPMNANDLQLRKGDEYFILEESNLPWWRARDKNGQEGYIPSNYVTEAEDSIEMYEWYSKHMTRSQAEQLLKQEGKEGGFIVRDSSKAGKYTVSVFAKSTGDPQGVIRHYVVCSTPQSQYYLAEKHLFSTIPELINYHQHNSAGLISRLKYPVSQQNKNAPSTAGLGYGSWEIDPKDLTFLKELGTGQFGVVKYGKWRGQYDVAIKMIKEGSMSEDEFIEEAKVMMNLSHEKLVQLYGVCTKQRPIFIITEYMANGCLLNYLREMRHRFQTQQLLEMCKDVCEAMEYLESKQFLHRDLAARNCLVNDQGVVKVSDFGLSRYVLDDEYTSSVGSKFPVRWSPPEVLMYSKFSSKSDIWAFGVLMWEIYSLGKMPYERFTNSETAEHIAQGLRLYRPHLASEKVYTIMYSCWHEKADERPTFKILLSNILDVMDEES
Dual specificity mitogen-activated protein kinase kinase 6, sequence (P52564 whole entry): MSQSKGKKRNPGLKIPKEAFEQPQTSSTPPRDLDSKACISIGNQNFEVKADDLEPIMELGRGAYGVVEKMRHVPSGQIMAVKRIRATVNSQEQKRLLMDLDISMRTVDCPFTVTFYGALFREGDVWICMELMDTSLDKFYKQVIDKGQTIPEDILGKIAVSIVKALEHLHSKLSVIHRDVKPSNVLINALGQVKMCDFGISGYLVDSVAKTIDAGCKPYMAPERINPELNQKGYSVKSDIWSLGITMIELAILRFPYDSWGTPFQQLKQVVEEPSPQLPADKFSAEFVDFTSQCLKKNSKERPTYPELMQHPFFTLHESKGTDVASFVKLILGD
High affinity nerve growth factor receptor, sequence (P04629 whole entry): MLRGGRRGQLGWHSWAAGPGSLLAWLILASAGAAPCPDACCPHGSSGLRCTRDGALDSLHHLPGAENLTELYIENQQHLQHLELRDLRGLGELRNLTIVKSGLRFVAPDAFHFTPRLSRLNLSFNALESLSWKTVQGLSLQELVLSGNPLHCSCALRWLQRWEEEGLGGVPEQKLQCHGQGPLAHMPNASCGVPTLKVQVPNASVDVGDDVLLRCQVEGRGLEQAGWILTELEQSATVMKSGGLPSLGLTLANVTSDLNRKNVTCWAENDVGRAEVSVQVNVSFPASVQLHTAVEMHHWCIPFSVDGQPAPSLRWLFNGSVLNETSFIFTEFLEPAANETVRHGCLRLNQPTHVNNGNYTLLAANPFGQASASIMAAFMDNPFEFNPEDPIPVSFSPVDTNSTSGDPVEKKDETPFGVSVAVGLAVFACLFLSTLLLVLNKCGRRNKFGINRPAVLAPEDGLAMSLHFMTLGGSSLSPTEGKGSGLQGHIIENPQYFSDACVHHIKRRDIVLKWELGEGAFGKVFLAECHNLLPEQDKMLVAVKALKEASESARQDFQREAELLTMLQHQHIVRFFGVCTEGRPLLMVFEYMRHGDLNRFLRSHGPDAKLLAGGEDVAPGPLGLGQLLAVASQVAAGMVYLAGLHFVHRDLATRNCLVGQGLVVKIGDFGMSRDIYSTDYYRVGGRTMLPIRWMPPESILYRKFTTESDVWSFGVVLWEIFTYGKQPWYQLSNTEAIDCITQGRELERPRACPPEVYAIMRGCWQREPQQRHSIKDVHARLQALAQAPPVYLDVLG
Mitogen-activated protein kinase kinase kinase 3, sequence (Q99759 whole entry): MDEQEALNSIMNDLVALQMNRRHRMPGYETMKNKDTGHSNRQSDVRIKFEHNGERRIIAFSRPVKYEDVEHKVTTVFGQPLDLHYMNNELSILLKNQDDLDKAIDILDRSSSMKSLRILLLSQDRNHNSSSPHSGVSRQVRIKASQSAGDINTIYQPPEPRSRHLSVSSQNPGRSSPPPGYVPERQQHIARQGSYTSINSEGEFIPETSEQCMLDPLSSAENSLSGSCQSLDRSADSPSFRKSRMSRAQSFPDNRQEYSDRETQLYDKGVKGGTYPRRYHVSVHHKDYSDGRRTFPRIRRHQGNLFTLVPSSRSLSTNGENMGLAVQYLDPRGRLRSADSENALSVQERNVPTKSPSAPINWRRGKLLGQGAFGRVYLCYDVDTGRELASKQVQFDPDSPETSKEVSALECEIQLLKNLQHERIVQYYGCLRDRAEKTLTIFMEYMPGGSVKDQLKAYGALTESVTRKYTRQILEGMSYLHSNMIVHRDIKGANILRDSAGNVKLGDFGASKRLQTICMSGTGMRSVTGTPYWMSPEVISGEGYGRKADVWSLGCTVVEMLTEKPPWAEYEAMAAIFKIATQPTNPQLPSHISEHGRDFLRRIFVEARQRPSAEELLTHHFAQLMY
Dual specificity mitogen-activated protein kinase kinase 7, sequence (O14733 whole entry): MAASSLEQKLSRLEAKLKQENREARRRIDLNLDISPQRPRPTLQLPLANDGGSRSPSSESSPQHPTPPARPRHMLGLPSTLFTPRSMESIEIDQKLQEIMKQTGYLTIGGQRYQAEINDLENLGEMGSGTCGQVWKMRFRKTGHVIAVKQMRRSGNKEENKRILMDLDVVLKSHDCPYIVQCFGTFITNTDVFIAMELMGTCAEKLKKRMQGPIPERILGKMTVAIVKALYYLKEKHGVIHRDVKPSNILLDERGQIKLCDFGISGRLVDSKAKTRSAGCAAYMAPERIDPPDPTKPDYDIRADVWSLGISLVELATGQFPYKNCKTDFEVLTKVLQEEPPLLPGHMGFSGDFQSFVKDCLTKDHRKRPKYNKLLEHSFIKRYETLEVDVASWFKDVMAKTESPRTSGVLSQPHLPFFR
Receptor tyrosine-protein kinase erbB-4, sequence (Q15303 whole entry): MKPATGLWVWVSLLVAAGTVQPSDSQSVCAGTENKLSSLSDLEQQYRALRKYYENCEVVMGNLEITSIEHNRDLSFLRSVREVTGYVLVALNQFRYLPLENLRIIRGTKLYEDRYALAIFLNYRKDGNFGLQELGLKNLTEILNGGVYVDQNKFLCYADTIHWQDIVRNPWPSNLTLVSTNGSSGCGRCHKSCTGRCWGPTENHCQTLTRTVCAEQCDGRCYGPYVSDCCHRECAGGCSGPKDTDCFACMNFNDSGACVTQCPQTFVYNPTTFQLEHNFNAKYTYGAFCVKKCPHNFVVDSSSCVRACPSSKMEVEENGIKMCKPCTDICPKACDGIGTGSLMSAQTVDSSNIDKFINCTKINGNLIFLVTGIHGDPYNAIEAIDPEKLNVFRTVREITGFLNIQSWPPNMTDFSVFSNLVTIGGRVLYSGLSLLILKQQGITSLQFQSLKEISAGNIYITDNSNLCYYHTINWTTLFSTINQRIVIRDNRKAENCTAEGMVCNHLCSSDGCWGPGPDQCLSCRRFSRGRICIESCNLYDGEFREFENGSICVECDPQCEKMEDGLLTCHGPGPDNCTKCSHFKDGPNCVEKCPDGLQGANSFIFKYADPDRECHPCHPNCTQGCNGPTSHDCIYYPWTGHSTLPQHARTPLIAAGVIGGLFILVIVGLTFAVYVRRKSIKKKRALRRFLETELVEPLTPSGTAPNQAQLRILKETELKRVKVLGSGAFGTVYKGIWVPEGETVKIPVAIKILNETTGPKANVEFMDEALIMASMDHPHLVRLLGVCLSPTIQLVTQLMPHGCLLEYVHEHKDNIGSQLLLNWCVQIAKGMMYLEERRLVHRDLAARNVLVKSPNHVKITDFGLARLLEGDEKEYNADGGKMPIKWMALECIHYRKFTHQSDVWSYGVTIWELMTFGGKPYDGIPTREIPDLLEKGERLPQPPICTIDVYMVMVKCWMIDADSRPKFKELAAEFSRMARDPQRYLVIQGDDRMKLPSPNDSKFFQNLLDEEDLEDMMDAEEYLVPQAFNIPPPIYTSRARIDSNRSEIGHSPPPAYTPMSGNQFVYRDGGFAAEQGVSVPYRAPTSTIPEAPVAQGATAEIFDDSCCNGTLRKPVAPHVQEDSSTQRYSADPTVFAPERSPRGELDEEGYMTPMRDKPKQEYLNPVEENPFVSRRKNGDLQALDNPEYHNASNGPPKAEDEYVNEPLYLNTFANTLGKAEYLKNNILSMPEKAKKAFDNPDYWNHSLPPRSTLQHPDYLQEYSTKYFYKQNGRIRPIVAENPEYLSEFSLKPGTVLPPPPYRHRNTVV
Dual specificity mitogen-activated protein kinase kinase 4, sequence (P45985 whole entry): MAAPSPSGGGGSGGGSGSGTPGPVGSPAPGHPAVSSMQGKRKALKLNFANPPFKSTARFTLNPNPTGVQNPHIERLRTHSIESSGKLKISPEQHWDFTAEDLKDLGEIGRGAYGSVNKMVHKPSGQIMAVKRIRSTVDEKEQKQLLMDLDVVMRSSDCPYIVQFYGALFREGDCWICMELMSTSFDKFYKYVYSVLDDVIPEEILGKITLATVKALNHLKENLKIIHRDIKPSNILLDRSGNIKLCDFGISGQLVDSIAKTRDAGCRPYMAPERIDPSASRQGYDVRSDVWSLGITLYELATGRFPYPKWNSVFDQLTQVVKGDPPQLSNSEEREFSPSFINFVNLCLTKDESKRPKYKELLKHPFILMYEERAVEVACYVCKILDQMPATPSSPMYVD
Dual specificity mitogen-activated protein kinase kinase 1, sequence (Q02750 whole entry): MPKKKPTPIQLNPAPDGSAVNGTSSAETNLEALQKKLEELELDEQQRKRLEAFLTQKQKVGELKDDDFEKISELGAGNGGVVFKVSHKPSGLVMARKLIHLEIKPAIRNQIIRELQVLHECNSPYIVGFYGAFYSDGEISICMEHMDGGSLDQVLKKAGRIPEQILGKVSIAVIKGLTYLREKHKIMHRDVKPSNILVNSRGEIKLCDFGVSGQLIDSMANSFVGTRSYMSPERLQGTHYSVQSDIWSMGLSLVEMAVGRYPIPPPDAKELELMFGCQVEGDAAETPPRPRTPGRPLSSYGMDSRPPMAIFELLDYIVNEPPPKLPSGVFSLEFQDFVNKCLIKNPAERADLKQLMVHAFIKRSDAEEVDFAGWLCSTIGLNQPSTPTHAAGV

C=CC(=O)N1CCC(Cn2cc(-c3ccc4c(c3)OCO4)c3c(N)ncnc32)CC1
IC50 [1]: > 10 µM
inhibition [2]: inactive
IC50 [3]: > 10 µM
IC50 [4]: > 10 µM
CL/F [5]: 45.8 mL/min/kg
Activity [6]: Non-Toxic
IC50 [7]: > 10 µM
inhibition [8]: Dose-dependent effect
IC50 [9]: > 10 µM
IC50 [10]: > 10 µM
IC50 [11]: > 10 µM
Ka [12]: 9630 M⁻¹ s⁻¹
Cmax [13]: 258 ng/mL
Activity [14]: Non-Toxic
CLH [15]: 8.2 µL/min/mg
Vd [16]: 26.15 L/kg
inhibition [17]: Active
inhibition [18]: inactive
CLH [19]: 5.4 µL/min/mg
IC50 [20]: > 10 µM
Activity (Mus musculus): Active
AUCt [21]: 2522.28 ng·h/mL
IC50 [22]: > 10 µM
IC50 (L02): 31.3 µM
IC50 [23]: > 10 µM
half-life at 100 µM [24]: 4.28 h
IC50 [25]: > 10 µM
IC50 [26]: > 10 µM
IC50 [27]: > 10 µM
IC50 [28]: > 10 µM
Activity [29]: Non-Toxic
IC50 [30]: > 10 µM
IC50 [31]: > 10 µM
IC50 [32]: > 10 µM
IC50 [33]: > 10 µM
Cmax [34]: 3130 ng/mL
IC50 (HEK293): 34.2 µM
Vd [35]: 1.21 L/kg
t1/2 [36]: 5.18 h
IC50 [37]: 0.64 µM
IC50 [38]: > 10 µM
IC50 [39]: > 10 µM
